Reference: paper PMC10916291, “Cocrystals of a coumarin derivative: an efficient approach towards anti-leishmanial cocrystals against MIL-resistant Leishmania tropica” (IUCrJ, 2024)
Like-named read-outs stand apart in the source and are kept apart here.

Experiments:
[1] = Thermal analysis (DSC and TGA); type: physicochemical; conditions: heating rate 10°C min^-1, dry N2
Method: DSC and TGA were performed on a LINSEIS STA PT1600 with heating rate of 10°C min^−1. About 20–25 mg of samples were crimped in a ceramic pan and scanned from 30 to 600°C under dry N2 gas purging. The Linseis TA software (version 1.0; Linseis Messgeraete GmbH) was employed for collecting data.

[2] = tested on: 3T3 (normal mouse fibroblast) cell line; assay: in vitro
Method: (§1) In vitro biological activities of CU, coformers and synthesized cocrystals 2–6 were evaluated for their MIL-resistant L. tropica promastigotes and cytotoxicity against […]. Detailed methodologies of the biological assays are provided in the supporting information.
(§2) 2. Cytotoxicity assay Protocol:
(§3) Cy totoxicity o f compounds was evaluated in 96-well flat-bo ttomed micro plates by using the standard MTT (3-[4, 5-dimethylthiazole-2-y l]-2 , 5-d iph eny l-tetrazolium bromide) colorimetric assay. For this purpose, 3T3 (mouse fibroblast) cells were cultured in Dulb ecco’s Modified Eagle Medium, supplemented with 5% of fetal bovine serum (FBS), 100 IU/mL of penicillin and 100 µg / m L of strep tomy cin in 75 cm2 flasks, and kept in 5% CO2 incubator at 37° C.
(§4) Exponentially growing cells were harvested, counted with haemocytometer, and diluted with a particular medium. Cell culture with the concentration of 5x10^4 cells/mL was p rep ared and introduced (100 µL/well) into 96-well plates. After overnight incubation, medium was removed and 200 µL of fresh medium was added with different concentrations of compounds (1-30 µM).
(§5) After 48 hrs. 200 µL MTT (0.5 mg/mL) was added to each well, and incubated further for 4 hrs.
(§6) Subsequently, 100 µL of DMSO was added to each well. The extent of MTT reduction to formazan within cells was calculated by measuring the absorbance at 540 nm, using a micro-plate reader (Spectra Max p lus, Molecular Devices, USA). The cy totoxicity was recorded as a concentration causing 50% growth inhibition (IC50) of 3T3 cells. The percent inhibition was calculated by using the fo llo wing formula:
(§7) % Inhibition = 100-((mean of O.D of test compound – mean of O.D of negative control)/ (mean of O.D. of positive control – mean of O.D of negative control)*100).
(§8) The results (% inhibition) were processed by using Soft- Max Pro software (Molecular Devices, […]

[3] = tested on: MIL-resistant L. tropica promastigotes; assay: microbe, parasite or virus in culture; type: cell-based, Leishmania tropica; conditions: for IC50: Leishmania tropica, 72 h, read-out: Anti-leishmanial activity against MIL-resistant L. tropica via MTT assay (IC50 = µM ± SEM)
Method: as §1
(§9) Biological activities evaluations
1. MIL-resistant L. tropica assay protocol
Miltefosine (hexadecylphosphocholine) (LEAP Chem), RPMI-1640 culture medium (Gibco), supplemented with 10% (v/v) heat-inactivated fetal bovine serum (FBS) (Gibco), 2 mM L-glutamine, 1% penicillin/ streptomycin (Sigma), DMSO (ALC labscan), and Trypan blue […]
Clinical Isolate and Generation of MIL resistant line:
Clinical isolate (L. tropica promastigote) from the endemic area of Islamabad (Pakistan) was ob tained from a patient. Promastigote cultures were maintained at 26 °C in RPMI medium, containing 15 % FBS and 1 % penicillin–streptomycin mixture. Clinical isolate was characterized by sequencing.
(§10) Generation of Miltefosine-unresponsive strain was carried under high MIL pressure by in vitro passage with stepwise increase in the MIL concentration. At each step, parasites were cultured, and passaged every 3–4 days at an initial concentration of 5x10^5 promastigotes/mL in order to achieve the stable growth, as compared to the wild type isolate. Growth rates were measured for resistant populations and compared with the WT strain. Parasites were counted at an initial concentration of 5 x 10^5 parasites/mL, and growth was measured daily using a Neubauer chamber until the population reached stationary phase. Fu rth ermore, the fluorescence microscopic investigations via DAPI stain were also carried out to supplement the study, and for […]
Promastigote Growth Inhibition Assay
(IC50) of resistant cell proliferation concerning untreated controls, the MTT assay was employed.
The promastigotes in their log phase were used in 96-well plates. 1 × 106 wild-type and resistant […]
promastigotes were dispensed in 96-well plates, and incubated with tested compounds at a range concentration of 200–10 μM (stock concentration 1mg/mL and the working con centrations started from 250 µg/mL) at 27°C for 72 h. After incubation of 72 h, MTT dye (3-(4,5-dimethylthiazol-2-yl)-2,5-diphenyl-2H-tetrazolium bromide) was added and further incubate it for 3–4 h. Amphotericin B, pantamidine and miltefosine were used as th e positive control, untreated promastigotes were used as negative control moreover DMSO control was also added in the study as a stock solution of the compounds that were prepared in DMSO. All the experiments were performed in triplicates. After completion of the experiment the absorbance by Multiskan ascent plate reader at 452 nm and percent inhibition was calculated by the following […]
Cytotoxic concentration (%) = [100- (Absorbance of test)/ (Absorbance of solv ent con trol) ×100]

in vitro = conditions: mouse
Method: as §1, §2, §3, §4, §5, §6, §7, §8

[4] = tested on: MIL-resistant L. tropica promastigotes; assay: Growth of MIL-resistant L. tropica line generated by step-wise selection (trypan blue count); type: cell-based, Leishmania tropica; conditions: step-wise selection of MIL up to 196 µM, Fig. 9
Method: L. tropica MIL-unresponsive/resistant parasites were developed and maintained using a step-wise selection of the drug MIL up to a concentration of 196 µM. No significant differences in growth patterns were observed between WT- and MIL-resistant strains.
Figure 9 MIL-resistant L. tropica line generated by step-wise selection. 1 × 10^6 log-phase promastigotes were incubated in the presence of a range of drug concentrations. The surviving cells were quantified with trypan blue dye. Populations of parasites were grown in increasing concentrations of MIL, showing increased resistance to MIL. Bars of both resistant and WT parasites represent the more or less similar growth patterns.
as §9
1. MIL-resistant L. tropica assay protocol […]
as §10, with “At each step, parasites were cultured, and passaged every 3–4 days at an initial concentration of 5x10^5 promastigotes/mL in order to achieve the stable growth, as compared to the wild type isolate.” left out

## O=C(O)c1cc2ccccc2oc1=O [Cocrystal 1a, Coumarin-3-carboxylic acid]
[1]
  Thermal stability up to (TGA/DSC): 191.78 °C
[2]
  Cytotoxic activity 3T3 cell line (IC50 = µM ± SEM): Non-cytotoxic

## Nc1ncccc1Br [Cocrystal 1b, 2-amino-3-bromopyridine]
[1]
  Thermal stability up to (TGA/DSC): 67.29 °C
[2]
  Cytotoxic activity 3T3 cell line (IC50 = µM ± SEM): Non-cytotoxic

## Nc1ccc(C(F)(F)F)cn1 [Cocrystal 1c, 2-amino-5-(trifluoromethyl)-pyridine]
[1]
  Thermal stability up to (TGA/DSC): 48.38 °C
[2]
  Cytotoxic activity 3T3 cell line (IC50 = µM ± SEM): Non-cytotoxic

## Nc1ccc(C(=O)O)cc1 [Cocrystal 1e, p-aminobenzoic acid]
[2]
  Cytotoxic activity 3T3 cell line (IC50 = µM ± SEM): Non-cytotoxic

## Nc1nc[nH]n1 [Cocrystal 1f, amitrole]
[3]
  IC50: 78 ± 0.96 µM
[3]; Table S1, concentration 46.95 (unit not given)
  Percent Inhibitions: 44.0%
[3]; Table S1, concentration 93.88 (unit not given)
  Percent Inhibitions: 53.1%
[3]; Table S1, concentration 187 (unit not given)
  Percent Inhibitions: 63.01%
[2]; 3T3 normal mouse fibroblast, MTT, 48 h, 1-30 µM
  Cytotoxic activity 3T3 cell line (IC50 = µM ± SEM): Non-cytotoxic

## C[C@@H]1C[C@@H]([C@H](O)CC2CC(=O)NC(=O)C2)C(=O)[C@@H](C)C1 [cyclohexamide, reference compound]
In vitro
  IC50 at 48 h: 0.8 ± 0.14 µM

## CCCCCCCCCCCCCCCCOP(=O)([O-])OCC[N+](C)(C)C [miltefosine, hexadecylphosphocholine, reference compound]
[3]
  IC50: 169.55 ± 0.078 µM
[4]
  Inhibitory effect on cell proliferation of MIL-resistant L. tropica: no inhibitory effects
